Source: the supplement of paper PMC10307832

Legend:
Test in all cases: relative viability (nuclei count vs DMSO), 5 days (fraction); higher = more cells survive
[1] = compound: CC1=CN2C(=O)C=C(N=C2C(=C1)C(C)NC3=CC=CC=C3)N4CCOCC4 [TGX 221] + Cc1nc(NC(=O)N2CCC[C@H]2C(N)=O)sc1-c1ccnc(C(C)(C)C(F)(F)F)c1 [Alpelisib] (partner 2 µM)
Summary of the method: (§1)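 Relative viability is defined as nuclei in treated wells over nuclei in vehicle wells. Duplicate plates were run and medians reported. Lung cancer cell lines in 1536-well plates were dosed by pin tool one day after seeding, with one drug or with a fixed anchor-drug dose plus five library-drug doses (not always all listed) in √10 steps, and nuclei were counted after 5 days.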

[2] = compound: C1=CC=C(C(=C1)C2=CC=C(C=C2)C3=CSC4=C3C(=C(C(=O)N4)C#N)O)O + CS(=O)(=O)N1CCN(Cc2cc3nc(-c4cccc5[nH]ncc45)nc(N4CCOCC4)c3s2)CC1 [Pictilisib] (partner 1 µM)
Summary of the method: as §1

[3] = compound: O=C(CCCCCCNC(=O)c1cnc(N(c2ccccc2)c2ccccc2)nc1)NO [Ricolinostat] + N=C(N)NC(=N)NCCc1ccccc1 [Phenformin] (partner 250 µM)
Summary of the method: as §1

[4] = compound: C1=CC=C(C(=C1)C2=CC=C(C=C2)C3=CSC4=C3C(=C(C(=O)N4)C#N)O)O + CC(=O)Nc1cccc(-n2c(=O)n(C3CC3)c(=O)c3c(Nc4ccc(I)cc4F)n(C)c(=O)c(C)c32)c1 [Trametinib] (partner 0.02 µM)
Summary of the method: as §1

Cell Line	relative viability ([1]; first compound 0.253 µM)	relative viability ([1]; first compound 0.8 µM)	relative viability ([1]; first compound 2.53 µM)	relative viability ([1]; first compound 8 µM)	relative viability ([2]; first compound 0.08 µM)	relative viability ([2]; first compound 0.253 µM)	relative viability ([2]; first compound 0.8 µM)	relative viability ([2]; first compound 2.53 µM)	relative viability ([2]; first compound 8 µM)	relative viability ([3]; first compound 0.08 µM)	relative viability ([3]; first compound 0.253 µM)	relative viability ([3]; first compound 0.8 µM)	relative viability ([3]; first compound 2.53 µM)	relative viability ([4]; first compound 0.08 µM)	relative viability ([4]; first compound 0.253 µM)	relative viability ([4]; first compound 0.8 µM)	relative viability ([4]; first compound 2.53 µM)	relative viability ([4]; first compound 8 µM)	relative viability ([1]; first compound 0.08 µM)
201T	0.942	0.943	0.872	0.827	0.646	0.697	0.652	0.584	0.846	0.41	0.449	0.452	0.467	0.734	0.744	0.737	0.734	0.832	–
A549	0.52	0.542	0.377	0.28	0.322	0.552	0.539	0.516	0.422	–	0.114	0.132	0.155	–	–	–	–	–	0.63
A-427	1.11	1.14	0.976	1.08	0.577	0.751	0.683	0.75	0.886	–	0.303	0.298	0.337	0.688	0.842	0.772	0.746	0.858	1.04
ABC-1	0.858	0.996	0.99	0.838	0.678	0.881	0.949	0.59	0.548	0.27	0.24	0.253	0.274	–	–	–	–	–	1.03
BEN	0.942	0.899	0.899	0.88	0.547	0.597	0.437	0.547	0.428	0.321	0.283	0.228	0.225	1.13	1.08	1.01	0.967	1.02	0.982
CAL-12T	1.1	1.21	0.852	0.64	–	0.446	0.359	0.337	0.367	0.489	0.548	0.559	0.517	0.378	0.381	0.312	0.333	0.27	1.17
COR-L23	0.659	0.759	0.722	0.742	0.757	0.581	0.813	0.728	0.575	0.363	0.379	0.402	0.227	0.669	0.716	0.76	0.552	0.521	0.807
COR-L 105	0.838	0.697	0.609	0.361	0.387	0.525	0.428	0.417	0.433	–	0.562	0.458	0.471	0.466	0.46	0.482	0.444	0.408	1.02
Calu-6	0.8	0.948	0.917	0.883	0.959	0.967	1.05	0.988	0.812	–	–	–	–	–	–	–	–	–	0.986
ChaGo-K-1	–	–	–	–	0.387	0.634	0.554	0.747	0.829	0.537	0.494	0.46	0.513	0.94	0.905	0.935	1.01	0.857	–
